Laboratory results from ChEMBL document CHEMBL1139070, “Synthesis and characterization of poly (amino ester) for slow biodegradable gene delivery vector” (Bioorg Med Chem, 2007).

Columns and labels:
[1] = Cytotoxicity against HEPG2 cells assessed as cell viability at 200 ug/ml after 24 hrs by MTT method; assay type: cell-based; conditions: human, read-out: Activity
[2] = Cytotoxicity against C2C12 cells assessed as cell viability at 200 ug/ml after 24 hrs by MTT method; assay type: cell-based; conditions: read-out: Activity
[3] = Cytotoxicity against C2C12 cells assessed as cell viability at 200 ug/ml by MTT method; assay type: cell-based, Homo sapiens; conditions: read-out: Activity
[4] = Cytotoxicity against HEPG2 cells assessed as cell viability at 200 ug/ml by MTT method; assay type: cell-based; conditions: human, read-out: Activity
[5] = tested on: C2C12; experiment: Cytotoxicity against C2C12 cells assessed as cell viability upto 30 ug/ml after 24 hrs by MTT method; assay type: cell-based; conditions: c2c12, 24 h

For CCCCCC(=O)OCCN(CCOC(=O)CCN(CCC(=O)OC)CCN1CCC(=O)OCCCN2CCOC(=O)CCN(CCC(=O)OCCN(CCOC(=O)CCCCC)C(COC(=O)CCCCC)(COC(=O)CCCCC)COC(=O)CCN3CCC(=O)OCC2(CO)COC(=O)CCN(CCN(CCC(=O)OC)CCC(=O)OCC(COC(=O)CCCCC)(COC(=O)CCCCC)N(CCOC(=O)CCCCC)CCOC(=O)CCCCC)CCC(=O)OCCN(C(CO)(COC(=O)CCCCC)COC(=O)CCCCC)CCOC(=O)CCN(CCC(=O)OCC(COC(=O)CCCCC)(COC(=O)CCCCC)N(CCOC(=O)CCCCC)CCOC(=O)CCCCC)CC3)CCN(CCC(=O)OC)CC(=O)OCCN(CCOC(=O)CCCCC)C(CO)(COC(=O)CCCCC)COC(=O)CC1)C(CO)(COC(=O)CCCCC)COC(=O)CCCCC (stereo not given), which viability at 24 h, 200 ug/ml [1] is on record?
Its viability at 24 h, 200 ug/ml is 87%.

And the viability at 24 h, 200 ug/ml [2]?
The viability at 24 h, 200 ug/ml was 85%.

And the viability at 200 ug/ml [3]?
Its viability at 200 ug/ml is 73%.

And the viability at 200 ug/ml [4]?
The viability at 200 ug/ml was 82%.

And the Activity [5]?
Its Activity is “Non-toxic”.
